Measurements published in ChEMBL document CHEMBL3588788, “Structure-activity relationship of hybrids of Cinchona alkaloids and bile acids with in vitro antiplasmodial and antitrypanosomal activities” (Eur J Med Chem, 2015).

Key:
Plasmodium falciparum [1] = test: Antiplasmodial activity against Plasmodium falciparum 3D7 assessed as reduction in parasite viability by parasite lactate dehydrogenase assay; type: functional, organism-based
[2] = tested on: Trypanosoma brucei brucei; test: Antitrypanosomal activity against Trypanosoma brucei brucei Lister 427 bloodstream forms assessed as inhibition of parasite growth at 100 ug/ml by microtiter plate based assay; type: functional
Plasmodium falciparum [3] = test: Antiplasmodial activity against Plasmodium falciparum 3D7 assessed as inhibition of parasite viability at 100 ug/ml by parasite lactate dehydrogenase assay; type: functional
[4] = tested on: Trypanosoma brucei brucei; test: Antitrypanosomal activity against Trypanosoma brucei brucei Lister 427 bloodstream forms assessed as inhibition of parasite growth at 20 ug/ml by microtiter plate based assay; type: functional
[5] = Cytotoxicity against human WI38 cells assessed as inhibition of cell growth at 20 ug/ml by MTT assay; type: cell-based, WI-38
Plasmodium falciparum [6] = test: Antiplasmodial activity against Plasmodium falciparum 3D7 assessed as inhibition of parasite viability at 20 ug/ml by parasite lactate dehydrogenase assay; type: functional
[7] = Cytotoxicity against human WI38 cells by MTT assay; type: cell-based, WI-38
[8] = Cytotoxicity against human WI38 cells assessed as inhibition of cell growth at 100 ug/ml by MTT assay; type: cell-based, WI-38
Plasmodium falciparum [9] = test: Potency index, ratio of IC50 for QN to IC50 for test compound against Plasmodium falciparum 3D7 by parasite lactate dehydrogenase assay; type: functional
[10] = tested on: Trypanosoma brucei brucei; test: Antitrypanosomal activity against Trypanosoma brucei brucei Lister 427 bloodstream forms by microtiter plate based assay; type: functional, organism-based
in vitro = settings: human, WI38 cells
Description: Selectivity index, ratio of IC50 against human WI38 cells to IC50 for Trypanosoma brucei brucei Lister 427 bloodstream forms

[11] = Selectivity index, ratio of IC50 against human WI38 cells to IC50 for Plasmodium falciparum 3D7; type: toxicity, cell-based, WI-38; settings: read-out: Ratio IC50
[12] = tested on: Trypanosoma brucei brucei; test: Potency index, ratio of IC50 for QN to IC50 for test compound against Trypanosoma brucei brucei Lister 427 bloodstream forms by microtiter plate based assay; type: functional
[13] = Homo sapiens, WI-38, read-out: IC50

Row | SMILES | IC50 (Plasmodium falciparum [1]) [µM] | inhibition at 100 µg/mL [2] [%] | inhibition at 100 µg/mL (Plasmodium falciparum [3]) [%] | inhibition at 20 µg/mL [4] [%] | inhibition at 20 ug/ml [5] [%] | inhibition at 20 µg/mL (Plasmodium falciparum [6]) [%] | IC50 [7, 13] [µM] | inhibition at 100 ug/ml [8] [%] | Ratio IC50 (Plasmodium falciparum [9]) | IC50 [10] [µM] | selectivity ratio (in vitro) | selectivity ratio [11] | Ratio IC50 [12] | IC50 ([7]; wi-38)
1 | C[C@H](CCC(=O)O)[C@H]1CC[C@H]2[C@@H]3[C@H](O)[C@H](O)[C@@H]4C[C@H](O)CC[C@]4(C)[C@H]3CC[C@]12C [HYOCHOLIC ACID] | 109 | 64 | 92 | 7 | 18 | 54 |  |  |  |  |  |  |  | 
2 | CC[C@@]1(O)C(=O)OCc2c1cc1n(c2=O)Cc2cc3ccccc3nc2-1 [CAMPTOTHECIN] |  |  |  |  |  |  | 0.23 |  |  |  |  |  |  | 
3 | C=C[C@H]1CN2CC[C@H]1C[C@@H]2[C@@H](O)c1ccnc2ccc(OC)cc12 [QUINIDINE] | 0.194 |  |  |  |  |  | 34.8 |  |  |  |  |  |  | 
4 | C[C@H](CCC(=O)O)[C@H]1CC[C@H]2[C@@H]3CC[C@@H]4C[C@H](O)CC[C@]4(C)[C@H]3CC[C@]12C [LITHOCHOLIC ACID] | 26.9 | 100 | 100 | 5 | 22 | 85 |  | 98 |  |  |  |  |  | 
5 | C=C[C@H]1CN2CC[C@H]1C[C@H]2[C@H](O)c1cc(CC[C@@H](C)[C@H]2CC[C@H]3[C@@H]4[C@H](O)[C@H](O)[C@@H]5C[C@H](O)CC[C@]5(C)[C@H]4CC[C@]23C)nc2ccc(OC)cc12 | 0.275 |  |  |  |  |  | 5.55 |  | 2.3 | 0.76 | 7.3 | 20 | 27.8 | 
6 | C[C@H](CCC(=O)O)[C@H]1CC[C@H]2[C@@H]3[C@H](O)C[C@@H]4C[C@H](O)CC[C@]4(C)[C@H]3C[C@H](O)[C@]12C [CHOLIC ACID] | 133 | 24 | 83 | 20 | 6 | 56 |  |  |  |  |  |  |  | 
7 | C=C[C@H]1CN2CC[C@H]1C[C@H]2[C@H](O)c1cc(CC[C@@H](C)[C@H]2CC[C@H]3[C@@H]4[C@H](OC(C)=O)C[C@@H]5C[C@H](OC(C)=O)CC[C@]5(C)[C@H]4C[C@H](OC(C)=O)[C@]23C)nc2ccc(OC)cc12 | 0.0435 |  |  |  |  |  | 4.47 |  | 14.6 | 0.48 | 9.3 | 103 | 44.1 | 
8 | C=C[C@H]1CN2CC[C@H]1C[C@H]2[C@H](O)c1cc(CC[C@@H](C)[C@H]2CC[C@H]3[C@@H]4CC[C@@H]5C[C@H](O)CC[C@]5(C)[C@H]4C[C@H](O)[C@]23C)nc2ccc(OC)cc12 | 0.241 |  |  |  |  |  | 5.2 |  | 2.6 | 0.64 | 8.2 | 22 | 33.3 | 
9 | C[C@H](CCC(=O)O)[C@H]1CC[C@H]2[C@@H]3CC[C@@H]4C[C@H](O)CC[C@]4(C)[C@H]3C[C@H](O)[C@]12C [DEOXYCHOLIC ACID] | 93.6 | 100 | 100 | 2 | 9 | 59 |  | 50 |  |  |  |  |  | 
10 | C=C[C@H]1CN2CC[C@H]1C[C@H]2[C@H](O)c1cc(CC[C@@H](C)[C@H]2CC[C@H]3[C@@H]4C[C@H](OC(C)=O)[C@@H]5C[C@H](OC(C)=O)CC[C@]5(C)[C@H]4CC[C@]23C)nc2ccc(OC)cc12 | 0.46 |  |  |  |  |  | 5.86 |  | 1.4 | 1.49 | 3.9 | 13 | 14.3 | 
11 | C=C[C@H]1CN2CC[C@H]1C[C@@H]2[C@@H](O)c1ccnc2ccccc12 [CINCHONINE] | 0.292 |  |  |  |  |  | > 68 |  |  | > 68 |  | > 222 |  | 
12 | C=C[C@H]1CN2CC[C@H]1C[C@H]2[C@H](O)c1cc(CC[C@@H](C)[C@H]2CC[C@H]3[C@@H]4CC[C@@H]5C[C@H](OC(C)=O)CC[C@]5(C)[C@H]4C[C@H](OC(C)=O)[C@]23C)nc2ccc(OC)cc12 | 0.197 |  |  |  |  |  | 4.41 |  | 3.2 | 1.47 | 3 | 22 | 14.4 | 
13 | CC(=O)O[C@@H]1CC[C@]2(C)[C@H]3CC[C@]4(C)[C@@H]([C@H](C)CCC(=O)O)CC[C@H]4[C@@H]3C[C@H](OC(C)=O)[C@@H]2C1 | 32.7 | 100 | 97 | 81 | 20 | 73 |  | 98 |  | 16.3 |  |  |  | 
14 | CC(=O)O[C@@H]1CC[C@@]2(C)[C@@H](C1)[C@@H](OC(C)=O)[C@@H](OC(C)=O)[C@@H]1[C@@H]2CC[C@]2(C)[C@@H]([C@H](C)CCC(=O)O)CC[C@@H]12 | 8.1 | 100 | 97 | 83 | 9 | 88 |  | 96 |  | 5.6 |  |  |  | 
15 | C=C[C@H]1CN2CC[C@H]1C[C@H]2[C@H](O)c1ccnc2ccccc12 [CINCHONIDINE] | 0.963 |  |  |  |  |  | > 68 |  |  |  |  | > 71 |  | 
16 | C=C[C@H]1CN2CC[C@H]1C[C@H]2[C@H](O)c1cc(CC[C@@H](C)[C@H]2CC[C@H]3[C@@H]4[C@H](OC(C)=O)[C@H](OC(C)=O)[C@@H]5C[C@H](OC(C)=O)CC[C@]5(C)[C@H]4CC[C@]23C)nc2ccc(OC)cc12 | 0.056 |  |  |  |  |  | 3.76 |  | 11.3 | 0.45 | 8.3 | 67.2 | 46.8 | 
17 | C[C@H](CCC(=O)O)[C@H]1CC[C@H]2[C@@H]3[C@H](O)C[C@@H]4C[C@H](O)CC[C@]4(C)[C@H]3CC[C@]12C [CHENODIOL] | 18.9 | 100 | 98 | 11 | 27 | 77 |  | 94 |  |  |  |  |  | 
18 | CC(=O)O[C@@H]1CC[C@@]2(C)[C@H](CC[C@@H]3[C@@H]2CC[C@]2(C)[C@@H]([C@H](C)CCC(=O)O)CC[C@@H]32)C1 | 59.5 | 100 | 100 | 15 | 27 | 70 |  | 98 |  |  |  |  |  | 
19 | CC(=O)O[C@@H]1CC[C@@]2(C)[C@@H](C1)C[C@@H](OC(C)=O)[C@@H]1[C@@H]2CC[C@]2(C)[C@@H]([C@H](C)CCC(=O)O)CC[C@@H]12 | 21 | 100 | 90 | 99 | 57 | 59 | 16.8 | 98 |  | 12.5 |  |  |  | 
20 | C[C@@H]1CC[C@H]2[C@@H](C)C(=O)O[C@@H]3O[C@@]4(C)CC[C@@H]1[C@]32OO4 [ARTEMISININ] | 0.0362 |  |  |  |  |  |  |  |  |  |  |  |  | Not Active
21 | C=C[C@H]1CN2CC[C@H]1C[C@H]2[C@H](O)c1ccnc2ccc(OC)cc12 [QUININE] | 0.633 |  |  |  |  |  | 20.2 |  |  |  | 1 |  |  | 
22 | C[C@H](CCC(=O)O)[C@H]1CC[C@H]2[C@@H]3C[C@H](O)[C@@H]4C[C@H](O)CC[C@]4(C)[C@H]3CC[C@]12C [HYODEOXYCHOLIC_ACID] | 40.9 | 94 | 97 | 1 | 21 | 67 |  | 22 |  |  |  |  |  | 
23 | CC(=O)O[C@@H]1CC[C@@]2(C)[C@@H](C1)C[C@@H](OC(C)=O)[C@@H]1[C@@H]2C[C@H](OC(C)=O)[C@]2(C)[C@@H]([C@H](C)CCC(=O)O)CC[C@@H]12 | 22.5 | 100 | 100 | 15 | 12 | 68 |  | 29 |  |  |  |  |  | 
24 | CC(=O)O[C@@H]1CC[C@@]2(C)[C@H](CC[C@@H]3[C@@H]2C[C@H](OC(C)=O)[C@]2(C)[C@@H]([C@H](C)CCC(=O)O)CC[C@@H]32)C1 | 30.5 | 100 | 100 | 36 | 10 | 82 |  | 98 |  |  |  |  |  | 
